# Data reported in PMC7497641, “Neurotropic activity and safety of methylene-cycloalkylacetate (MCA) derivative 3-(3-allyl-2-methylenecyclohexyl) propanoic acid” (ACS Chemical Neuroscience, 2020).
# Legend:
# neurons = assay: Cytotoxicity to neurons; format: cell-based; settings: 10 μM
# Excerpt: “Off-target” activity refers to all other targets for which a molecule has affinity with the outcome of activation, blockade, or modulation, resulting in a functional effect. In many cases, the off-target activity of the molecule can be sub-clinical and not pose a concern. On the other hand, the off-target activity may result in side effects of the active agent that range from a minor nuisance to a severe adverse event, resulting with drug withdrawal.[33] Therefore, in vitro pharmacological profiling is increasingly being used earlier in the drug discovery process to identify undesirable off-target activity profiles that could hinder or halt the development of a candidate drug.[34] With this background, assessing the specificity of HU-MCA-13 early in its development using highly relevant and predictive functional assays, which allow more informed decisions about its safety, ultimately lead to the development of an effective neurotropic drug. […] Cell death was evaluated by morphological appearance of the cells and release of LDH into the medium, in the absence and presence of different concentrations of synthetic compounds as previously described.[52]
# [1] = biological target: Adrenergic Receptor α1A (ADRA1A) (Homo sapiens, UniProt P35348); assay: SAFETYscan GPCR Calcium Flux; format: cell-based
# Sequence of Adrenergic Receptor α1A (ADRA1A) (P35348 whole entry): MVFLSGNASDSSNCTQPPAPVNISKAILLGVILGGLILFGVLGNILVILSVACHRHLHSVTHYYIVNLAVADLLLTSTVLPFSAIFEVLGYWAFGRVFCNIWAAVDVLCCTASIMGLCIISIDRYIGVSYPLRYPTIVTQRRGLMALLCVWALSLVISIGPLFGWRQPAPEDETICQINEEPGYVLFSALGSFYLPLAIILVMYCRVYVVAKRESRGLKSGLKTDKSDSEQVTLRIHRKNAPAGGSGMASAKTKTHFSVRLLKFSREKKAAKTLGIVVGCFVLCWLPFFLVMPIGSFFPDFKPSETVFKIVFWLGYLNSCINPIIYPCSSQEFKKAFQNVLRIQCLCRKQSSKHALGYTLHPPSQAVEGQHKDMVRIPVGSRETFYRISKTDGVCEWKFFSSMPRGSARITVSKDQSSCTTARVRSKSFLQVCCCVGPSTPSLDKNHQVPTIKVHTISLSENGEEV
compound,measurement,setting,value
"C=CCC1CCCC(CCC(=O)O)C1=C (stereo not drawn) [HU-MCA-13, 3-(3-allyl-2-methylenecyclohexyl)propanoic acid]",toxicity to neurons,neurons,not toxic
same,EC50,[1],> 10 µM
same,IC50,[1],> 10 µM
